Laboratory results reported in patent publication US9738668B2.

Assays:
[1] = tested on: ABAD; format: biochemical
Method: Before the assay, all the assay components except SAAC were pre-incubated for 5 minutes, and the reaction started with the addition of SAAC into the reaction mix. The reaction was carried out for a total 6 minutes at room temperature under steady-state conditions, and the decrease of NADH absorbance at 340 nm was determined every 10 seconds. Kinetic data were analyzed by PRISM (Scitech, San Diego, Calif.) to determine IC50 values and Ki. One unit of enzyme activity was defined as that which converted 1.0 μmol of substrate to product per minute.

[2] = Pharmacokinetic study and BBB penetration, LC-MS/MS of plasma and brain; format: in vivo, C57BL6 mice; conditions: mice, intravenous 10 mg/kg
Method: Using the validated LCMS/MS method, blood and brain levels of 4, 8, and 15 were measured in male and female C57BL6 mice (8-10 week-old, weighing approximately 25-30 grams). The mice were housed in a room with controlled temperature (23±3° C.) and moisture level (55±15% relative humidity) and exposed to a controlled 12 hour light/12 hour dark cycle. They were allowed to access to food and water ad libitum. Mice were fasted for 6 hours with free access to water prior to the pharmacokinetic study. To determine the time course of compounds 4, 8, and 15 action in the brain, the plasma pharmacokinetics and BBB penetration capability of the inhibitors were investigated. In these experiments, compounds 4, 8, and 15 were administered to mice by intravenous injection at a dosage of 10 mg/kg. Blood and brain samples were collected from mouse at each time point (2, 5, 10, 30, 60, 120, 240, 360, 720, 1440, and 2880 minutes), a total of 11 time points. For plasma measurements, blood (approximately 500-800 μl) was collected via cardiac-puncture into tubes containing sodium heparin anti-coagulant. Plasma was separated via centrifugation (4° C., 3500 rpm, 10 minutes) and stored in −80° C. freezer. For qualitative confirmations of these compounds in CSF, samples were collected at 2 time points (240 and 1440 min) from five animals at each time point. At the time of measurement, frozen plasma samples were thawed at room temperature and vortexed thoroughly. The following quantities were estimated using non-compartmental calculations performed with WINNONLIN 5.2 (Pharsight, Sunnyvale, Calif.): the area under the plasma concentration-time curve during the period of observation (AUC0-τ); the area under the plasma concentration-time curve from zero to infinity (AUC0-∞); the maximum plasma concentration (Cmax); the time to reach Cmax (Tmax); and the half-life (t1/2).
The LC-MS/MS method described above was used for the determination of 4, 8 and 15 in plasma, brain, and CSF for pharmacokinetic study. Based on the initial concentration data, the pharmacokinetic parameters including the area under the plasma concentration-time curve during the period of observation (AUC0-t), the area under the plasma concentration-time curve from zero to infinity (AUC0-∞) the maximum plasma concentration (Cmax) the time to reach Cmax (Tmax) and the half-life (t1/2) are shown in Table 8.

[3] = tested on: cells; assay: Trypan blue dye exclusion (cell viability and toxicity); format: cell-based; conditions: 1, 10, 50, 100 μM, 48 to 66 hours
Method: The trypan blue dye exclusion is commonly used for measuring cell viability and toxicity. 48-66 hours after treatment of ABAD compounds, the trypan blue exclusion experiments were performed. In brief, cells plated in 96-well plates were washed with the balanced salt solution (Hanks-Balanced Salts/HBSS) once, then replaced with HBSS including trypan blue solution to the final concentration of 0.2% (Sigma-Aldrich, St. Louis, Mo.), and mixed thoroughly. After standing at room temperature for 5 minutes, the cells were washed with HESS again and then maintained in the well with HBSS. Both the stained and unstained cells in each well were counted under a microscope (Nikon E400). The calculated percentage of unstained cells represented the percentage of viable cells. Cell viability (%)=total viable cells (unstained)/total cells (stained and unstained)×100.
The effect of ABAD inhibitors on cell viability and toxicity was assessed using MTT reduction assay and trypan blue exclusion, which are widely used to assess cell survival and toxicity and to screen for drugs toxicity. Cells were treated with a range of concentrations of ABAD compound (4 and 8) at 1, 10, 50, 100 μM for 48 to 66 hours.

Row | SMILES | inhibitory effect on SAAC reduction by ABAD [1] | t1/2 ([2]; Brain) [h] | t1/2 ([2]; Plasma) [h] | percentage of trypan blue-positive cells [3]
1 | COC(=O)c1cc([C@H](Nc2nc3ccc(OC)cc3s2)P(=O)(OC)OC)ccc1O [Compound 4, Methyl 5-((dimethoxyphosphoryl)((6-methoxybenzo[d]thiazol-2-yl)amino)methyl)-2-hydroxybenzoate] | modest inhibitory effect | 17.1 | 6.2 | did not exhibit decreased MTT reduction, increased percentage of trypan blue-positive cells
2 | COc1ccc2nc(N[C@@H](c3ccc(O)cc3)P(=O)(OC)OC)sc2c1 (racemic) [Compound 8, Dimethyl ((4-hydroxyphenyl)((6-methoxybenzo[d]thiazol-2-yl)amino)methyl)phosphonate] | – | 8.3 | 5.5 | did not exhibit decreased MTT reduction, increased percentage of trypan blue-positive cells
